Assay results taken from PMC3387161, “Small Molecules Targeted to a Non-Catalytic “RVxF” Binding Site of Protein Phosphatase-1 Inhibit HIV-1” (PLoS ONE, 2012).
Where “and” joins values, the source holds several entries; their conditions need not be identical. Equal values may be shown once. Square brackets hold non-standard residues; d marks the D form. Ends that are not written are not given here. pS = N[C@@H](COP(=O)(O)O)C(=O)O

How the values were obtained:
[1] = tested on: HIV-1 transcription in CEM-GFP cells; assay: cells; type: cell-based; conditions: for IC50: Human immunodeficiency virus 1, CEM-GFP, 24 h, read-out: Inhibition of HIV-1 Transcription in CEM-GFP cells (IC50, μM)
CEM cells = assay: Toxicity by propidium iodide fluorescence in CEM-GFP cells; type: cell-based; conditions: Homo sapiens, CCRF-CEM, 3 µM to 45 µM, 24 h
recombinant PP1α = target: T1, recombinant PP1α (Oryctolagus cuniculus, UniProt P62139); assay: Malachite green dephosphorylation of RVxF-containing hybrid pRb peptides by PP1α; type: biochemical; conditions: peptide as substrate, no compound added
T1 construct: purchased New England Biolabs, Ipswich, MA
T1 sequence (P62139 whole entry): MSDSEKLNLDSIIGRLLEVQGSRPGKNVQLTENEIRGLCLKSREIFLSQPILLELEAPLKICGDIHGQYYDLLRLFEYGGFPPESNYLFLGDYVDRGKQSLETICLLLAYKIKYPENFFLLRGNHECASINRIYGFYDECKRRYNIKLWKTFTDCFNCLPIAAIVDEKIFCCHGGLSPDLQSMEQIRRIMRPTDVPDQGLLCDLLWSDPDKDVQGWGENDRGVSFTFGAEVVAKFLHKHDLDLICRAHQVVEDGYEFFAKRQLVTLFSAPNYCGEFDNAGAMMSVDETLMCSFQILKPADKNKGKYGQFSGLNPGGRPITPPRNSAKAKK
Text: Here, we analyzed the effect of 1H4 on the binding of the Tat RVxF sequence to PP1 using hybrid PP1 substrates containing a substrate phosphopeptide linked to RVxF-containing sequences derived from Tat or NIPP1. As the substrate phosphopeptide, we used a retinoblastoma protein-derived HIPR(pS)[…] peptide (pRb) that is efficiently dephosphorylated by PP1 but not by the enzymatically-related PP2A [13]. The pRb peptide was linked to an extended RVxF-containing sequence derived from Tat ([…]) (pRb-Tat peptide) or the central domain of NIPP1 ([…]). To visualize the interaction between pRb-Tat and PP1 we built a computational model of the pRb-Tat peptide with PP1 complex (described in Materials and Methods). Based on this model, the pRb-Tat peptide is able to bind to the RVxF- accommodating groove of PP1 and, at the same time, to reach the active site of PP1 without any tension (Fig. 5A, green spheres; Fig. 5B, gray sticks). The pRb-Tat peptide was efficiently dephosphorylated by PP1 in vitro (Fig. 5C, V0 = 0.31 µM·min^-1). […] Addition of 1H4 at 3-fold molar excess (480 µM) over pRb-Tat (160 µM) inhibited pRb-Tat dephosphorylation and reduced the rate of dephosphorylation (Fig. 5C, V0 = 0.19 µM·min^−1) to the rate of pRb-Tat QACA dephosphorylation (Fig. 5C, V0 = 0.17 µM⋅min^−1). […] To further investigate the effect of 1H4 on the dephosphorylation of the pRb-Tat peptide, we analyzed the initial velocity versus pRb-Tat peptide substrate concentration plots. […] This was expected because the dephosphorylation site and the RVxF-containing sequence were fused into one hybrid substrate and 1H4 interferes with the binding of this substrate to PP1.
Figure 5 1H4 compound competes with RVxF motif. A. Superimposition of pRb-Tat peptide on the complex of PP1 with Spinophilin. PP1 surface is colored after the atom types. The spinophilin peptide is shown as magenta ribbon and the pRb-Tat peptide as orange ribbon. The Val25 and Phe27 residues of pRb-Tat and the Ile449 and Phe 451 residues of Spinophilin are shown as sticks. The 2-(N-morpholino)-ethanesulfonic acid bound in the active site of PP1 is shown in green spheres. The phosphorylated Ser6 residue of pRb-Tat peptide is shown as sticks. B. Phosphorylated Ser 6 residue binds to the active site of PP1. Comparative superimposition of pRb-Tat peptide over the crystal structure of MES bound in the active site of PP1. Catalytic resides are shown as sticks. MES is shown as green sticks, and the phosphorylated Ser6 residue of pRb-Tat peptide is shown as orange sticks. The pRb-Tat peptide is shown as orange ribbon. C. 1H4 inhibits kinetics of pRb-Tat peptide dephosphorylation by PP1α. Recombinant PP1α was assayed with pRb-Tat (WT or QACA mutant, 120 µM) in the absence or presence of 1H4 as indicated. The reactions were stopped at indicated time points and the phosphate release was quantified by malachite green assay. Initial velocity was calculated by linear regression in Prism. D. 1H4 inhibits kinetics of pRb-cdNIPP dephosphorylation by PP1α. Recombinant PP1α was assayed with pRb-cdNIPP1 in the absence or presence of 1H4 as indicated. Mutant pRb cdNIPP1 pA-RATA was used as negative control. The reactions were stopped at indicated time points and the phosphate release was quantified by malachite green assay. Initial velocity was calculated by linear regression in Prism. […] Initial rates of pRb-Tat peptide dephosphorylation by PP1α were assayed at the indicated concentrations of the substrate in the absence or presence of 300 µM 1H4 or non-HIV-1 inhibitory 1G3. The amount of the released phosphate was quantified with malachite green.
Malachite green dephosphorylation assays were carried out with the Ser/Thr phosphatase assay kit (Upstate, Lake Placid, NY) using recombinant PP1α (New England Biolabs, Ipswich, MA). […]

PP1α = PP1α (Homo sapiens, UniProt P62136)
PP1α, sequence (P62136 whole entry): as the sequence (P62139 whole entry) above

Row | Molecule | IC50 [1] | IC50 (CEM cells) | Initial velocity V0 of peptide dephosphorylation by PP1α (recombinant PP1α) | other results
1 | Nc1c2c(nc3ccccc13)CCCC2 [9-amino-1,2,3,4-tetrahydroacridine, reference compound] |  |  |  | Activity as HIV-1 transcription inhibitor (in words) ([1]; data not shown, assay not specified): not active
2 | CCC(c1nnc(SCC(=O)Nc2ncc(-c3ccc(F)cc3)s2)n1Cc1ccccc1)N(C)C (stereo not shown) [T5251659] | 10 µM | 6 µM |  | 
3 | CCN(CC)S(=O)(=O)c1ccc2c(c1)nc(CCC(=O)N(C)c1ccc(C(F)(F)F)cc1)n2C [T5326526] | 15 µM | 10 µM |  | 
4 | CC(OC(=O)c1ccccc1SCC(=O)Nc1ccc2c(c1)OCO2)C(=O)NCCC1=CCCCC1 (stereo not shown) [T5369370] | 10 µM | 15 µM |  | 
5 | O=S(=O)(Nc1ccc(S(=O)(=O)N2CCC(Cc3ccccc3)CC2)cn1)c1ccccc1 [T5481237] | 15 µM | 20 µM |  | 
6 | O=C(CNC(=O)c1ccccc1SCC(=O)NC12CC3CC(CC(C3)C1)C2)Nc1ccc(Cl)cc1 [T5498680] | 5 µM | 5 µM |  | 
7 | CN(C1CCCCC1)S(=O)(=O)c1ccc(NC(=O)COc2ccccc2-c2ccccc2)cc1 [T5551920] | 15 µM | 15 µM |  | 
8 | HIPR(pS)PYKFPSSPLRKKCCFHCQACAITK (HIPR[pS]PYKFPSSPLRKKCCFHCQACAITK; cysteine pairing not given here) [pRb-Tat QACA] |  |  | 0.17 µM/min and 0.17 ± 0.02 µM/min | 
9 | HIPR(pS)PYKFPSSPLRKKCCFHCQVCFITK [pRb-Tat] |  |  | 0.31 µM/min and 0.31 ± 0.03 µM/min | 
10 | HIPR[pS]PYKFPSSPL [pRb, reference compound] |  |  | 0.014 µM/min | 
11 | HIPR[pS]PYKFPSSPLRAAAAASRATASED [pRb-NIPP1 pA-RATA] |  |  | 0.004 µM/min | Initial velocity V0 of peptide dephosphorylation by PP1α (recombinant PP1α; listed as pRb-cdNIPP1 pA-RATA): 0.017 ± 0.004 µM/min
12 | HIPR[pS]PYKFPSSPLRKRKRKNSRVTFSED [pRb-NIPP1] |  |  | 0.56 µM/min | Initial velocity V0 of peptide dephosphorylation by PP1α (recombinant PP1α; listed as pRb-cdNIPP1): 0.56 ± 0.03 µM/min
13 | HIPR[pS]PYKFPSSPLRKRKRKNSRVTFSED [pRb-NIPP1 peptide] |  |  |  | initial velocity V0 of dephosphorylation of the peptide by recombinant PP1α in the presence of the small molecule 1H4 (PP1α): 0.37 µM⋅min^−1; initial velocity V0 of dephosphorylation of the peptide by recombinant PP1α in vitro (malachite green) (PP1α): 0.56 µM⋅min^−1
